Source: patent US7622448B2, “Compositions suitable for topical application to the skin” (L'Oreal, priority 2003, dated 2009)

System: isolated stratum corneum
Test: Desquamating effect: counting corneocytes released from isolated stratum corneum
Conditions: compound 2% by weight in 0.1% Triton X100 PBS buffer pH 7.4, 37° C., 24 hours; for Average number of corneocytes released, 1st skin sample: control 1; for Average number of corneocytes released, 2nd skin sample: control 4
Procedure: The test consists in counting the corneocytes released after incubation of batches of isolated stratum corneum in the presence of three test compounds, corresponding to compounds F, G and K of Table 1.
Compounds F, G and K were each dissolved to 2% by weight in a 0.1% Triton X100 PBS buffer at pH 7.4.
Two different samples of stratum corneum isolated by trypsin/heat from plastic surgeries were used. SCI discs 4 mm in diameter were cut out using a punch and placed in the bottom of a 96-well dish. 50 μl of buffer containing the test compound were added to each well. Controls without compound were prepared. The tests were repeated three times. The incubation was performed at 37° C. with stirring for 24 hours. 10 μl were then taken up and placed in a Mallassez cell. The freed corneocytes were counted by microscope.

Row | Compound | Average number of corneocytes released, 1st skin sample | Average number of corneocytes released, 2nd skin sample
1 | CNC(=O)C(Cc1ccccc1)(C(=O)NC)[C@@H]1O[C@H](C)[C@H](O)[C@H](O)[C@H]1O [Compound F, 2-benzyl-N,N′-dimethyl-2-(3,4,5-trihydroxy-6-methyltetrahydropyran-2-yl)malonamide] | 5 | 12
2 | CNC(=O)C(Cc1ccccc1)(C(=O)NC)[C@@H]1OC[C@@H](O)[C@H](O)[C@H]1O [G] | 13 | 12
3 | CNC(=O)C(Cc1ccccc1)(C(=O)NC)[C@@H]1O[C@H](CO)[C@@H](O)[C@H](O)[C@H]1O [K] | 7 | 5
